Source: PubChem BioAssay (NCI)
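Five compound concentrations were applied to cells in 96-well plates for 48 hours; endpoints were derived by simple linear interpolation of the resulting dose-response curve. GI50 is the concentration that inhibits growth by half. Definition used: TGI = concentration required for complete inhibition of growth.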

Columns and labels:
Assay in all cases: NCI tumour cell line growth inhibition, 48 h
[1] = tested on: A498 renal
[2] = tested on: ACHN renal
[3] = tested on: CAKI-1 renal
[4] = tested on: EKVX NSCLC
[5] = tested on: HCT-15 colon
[6] = tested on: HT29 colon
[7] = tested on: MOLT-4 leukemia
[8] = tested on: NCI-H23 lung
[9] = tested on: SK-MEL-2 melanoma
[10] = tested on: UO-31 renal

## NC1=NN(c2ccccc2)C(=O)C1C(=O)C(=O)Nc1cccc(C(F)(F)F)c1 (stereo not given)
[1]
  TGI: > 100 µM
[2]
  TGI: > 100 µM
[3]
  TGI: > 100 µM
[4]
  TGI: > 100 µM
[5]
  TGI: > 100 µM
[6]
  TGI: > 100 µM
[7]
  TGI: > 100 µM
[8]
  TGI: > 100 µM
[9]
  TGI: > 100 µM
[10]
  TGI: > 100 µM

## N=c1oc2cc(O)c(O)cc2cc1C(N)=O
[1]
  TGI: > 100 µM
[2]
  TGI: > 100 µM
[3]
  TGI: > 100 µM
[4]
  TGI: > 100 µM
[5]
  TGI: > 100 µM
[6]
  TGI: > 100 µM
[7]
  TGI: > 100 µM
[8]
  TGI: > 100 µM
[9]
  TGI: > 100 µM
[10]
  TGI: > 100 µM

## COc1cc(C(=O)O)ccc1NC(=O)[C@@H]1N[C@@H](CC(C)(C)C)[C@](C#N)(c2ccc(Cl)cc2F)[C@H]1c1cccc(Cl)c1F
[1]
  GI50: 0.132 µM
  TGI: 2.79 µM
[2]
  GI50: 0.0496 µM
  TGI: 6.82 µM
[3]
  GI50: 0.1 µM
  TGI: 7.01 µM
[4]
  GI50: 6.51 µM
  TGI: 24 µM
[5]
  GI50: 2.93 µM
  TGI: 10.1 µM
[6]
  GI50: 3.39 µM
  TGI: 22.2 µM
[7]
  GI50: 0.083 µM
  TGI: 2.07 µM
[8]
  GI50: 5.47 µM
  TGI: 19.5 µM
[9]
  GI50: 2.96 µM
  TGI: 10 µM
[10]
  GI50: 0.0414 µM
  TGI: 5.03 µM

## N#C/C(=C\c1ccc(Cl)cc1)n1nnc2cc(F)c(F)cc21
[1]
  GI50: 1.28 µM
  TGI: 2.66 µM
[2]
  GI50: 1.64 µM
  TGI: 3.02 µM
[3]
  GI50: 1.7 µM
  TGI: 3.2 µM
[4]
  GI50: 1.67 µM
  TGI: 3.12 µM
[5]
  GI50: 1.42 µM
  TGI: 3.55 µM
[6]
  GI50: 2.5 µM
  TGI: 5.61 µM
[7]
  GI50: 2.65 µM
  TGI: > 100 µM
[8]
  GI50: 1.73 µM
  TGI: 3.71 µM
[9]
  GI50: 2.03 µM
  TGI: 4.83 µM
[10]
  GI50: 1.55 µM
  TGI: 2.88 µM

## C/C(=N\[N+](C)(C)C)C(c1ccccc1)C1(c2ccccc2)C(c2ccccc2)=C1c1ccccc1 (stereo not given)
[1]
  TGI: > 100 µM
[2]
  TGI: > 100 µM
[3]
  TGI: > 100 µM
[4]
  TGI: > 100 µM
[5]
  TGI: > 100 µM
[6]
  TGI: > 100 µM
[7]
  TGI: > 100 µM
[8]
  TGI: > 100 µM
[9]
  TGI: > 100 µM
[10]
  TGI: > 100 µM

## COc1ccc(/C(Cl)=C(\C=O)c2cc(OC)c(OC)c(OC)c2)cc1OC
[1]
  TGI: > 90.3 µM
[2]
  TGI: > 100 µM
[3]
  TGI: > 100 µM
[4]
  TGI: > 100 µM
[5]
  TGI: > 100 µM
[6]
  TGI: 87.7 µM
[7]
  TGI: > 100 µM
[8]
  TGI: > 100 µM
[9]
  TGI: > 90.5 µM
[10]
  TGI: > 100 µM

## O=C1CN2CCC1C/C2=C\c1ccnc2c(Cl)cccc12 (stereo not given)
[1]
  GI50: 69.8 µM
  TGI: > 100 µM
[2]
  GI50: 85.3 µM
  TGI: > 100 µM
[3]
  GI50: 21 µM
  TGI: > 100 µM
[4]
  GI50: 33 µM
  TGI: > 100 µM
[5]
  GI50: 85.7 µM
  TGI: > 100 µM
[6]
  GI50: 42.6 µM
  TGI: > 100 µM
[7]
  GI50: 44.4 µM
  TGI: > 100 µM
[8]
  GI50: 57 µM
  TGI: > 100 µM
[9]
  GI50: > 100 µM
  TGI: > 100 µM
[10]
  GI50: 17.7 µM
  TGI: > 100 µM

## O=C(c1cccs1)c1c(C(F)(F)F)n([O-])c2cc(C(F)(F)F)ccc2[n+]1=O
[1]
  GI50: 0.96 µM
  TGI: 2.6 µM
[2]
  GI50: 0.159 µM
  TGI: 0.303 µM
[3]
  GI50: 0.22 µM
  TGI: 0.628 µM
[4]
  GI50: 0.251 µM
  TGI: 0.625 µM
[5]
  GI50: 0.175 µM
  TGI: 0.349 µM
[6]
  GI50: 0.193 µM
  TGI: 0.419 µM
[7]
  GI50: 0.0757 µM
  TGI: 0.231 µM
[8]
  GI50: 0.348 µM
  TGI: 1.27 µM
[9]
  GI50: 0.915 µM
  TGI: 2.46 µM
[10]
  GI50: 0.315 µM
  TGI: 0.656 µM

## CCC[C@H](Nc1nc(-c2ccc(NC(=O)NCC)c(OC)c2)ncc1C)c1cccnc1
[1]
  GI50: 0.0322 µM
  TGI: 0.864 µM
[2]
  GI50: 0.0721 µM
  TGI: 35.2 µM
[3]
  GI50: 0.222 µM
  TGI: 24 µM
[4]
  GI50: 0.0621 µM
  TGI: > 100 µM
[5]
  GI50: 0.112 µM
  TGI: > 42.5 µM
[6]
  GI50: 0.0361 µM
  TGI: 16.9 µM
[7]
  GI50: 0.0359 µM
  TGI: 13.1 µM
[8]
  GI50: 0.0444 µM
  TGI: 6.93 µM
[9]
  GI50: 0.0477 µM
  TGI: 20.7 µM
[10]
  GI50: 0.277 µM
  TGI: 17.2 µM

## Cc1c(N(C(=O)c2cc(-c3cc(Cl)ccc3C(=O)N3Cc4ccccc4C[C@H]3CN3CCOCC3)n(C)c2C)c2ccc(O)cc2)cc(C#N)n1C
[1]
  GI50: 23.2 µM
  TGI: 61.6 µM
[2]
  GI50: 23.6 µM
  TGI: > 100 µM
[3]
  GI50: 6.35 µM
  TGI: > 100 µM
[4]
  GI50: 48.4 µM
  TGI: > 100 µM
[5]
  GI50: 16.6 µM
  TGI: > 100 µM
[6]
  GI50: 18.7 µM
  TGI: > 100 µM
[7]
  GI50: 2.98 µM
  TGI: > 100 µM
[8]
  GI50: 35.6 µM
  TGI: > 100 µM
[9]
  GI50: 11.8 µM
  TGI: 30.7 µM
[10]
  GI50: 15.6 µM
  TGI: > 100 µM

## COc1cc(/C=C2\C[C@H]3[C@@H]4CC=C5C[C@@H](OC(C)=O)CC[C@]5(C)[C@H]4CC[C@]3(C)[C@H]2OC(C)=O)ccc1OCCCn1ccnc1
[1]
  GI50: 7.19 µM
  TGI: 15 µM
[2]
  GI50: 8.49 µM
  TGI: 15.9 µM
[3]
  GI50: 7.05 µM
  TGI: 15.8 µM
[4]
  GI50: 9.49 µM
  TGI: 20 µM
[5]
  GI50: 7.5 µM
  TGI: 16 µM
[6]
  GI50: 18.5 µM
  TGI: > 50 µM
[7]
  GI50: 17.1 µM
  TGI: > 50 µM
[8]
  GI50: 9.94 µM
  TGI: 21.1 µM
[9]
  GI50: 16.7 µM
  TGI: > 50 µM
[10]
  GI50: 12.7 µM
  TGI: > 34 µM

## CCC[CH2][Sn]([CH2]CCC)([O]C(=O)c1cccc(F)c1F)[O][Sn]([CH2]CCC)([CH2]CCC)[O]C(=O)c1cccc(F)c1F
[1]
  GI50: 0.202 µM
  TGI: 0.526 µM
[2]
  GI50: 0.214 µM
  TGI: 0.512 µM
[3]
  GI50: 0.116 µM
  TGI: 0.363 µM
[4]
  GI50: 0.675 µM
  TGI: 2.04 µM
[5]
  GI50: 0.243 µM
  TGI: 0.797 µM
[6]
  GI50: 0.812 µM
  TGI: 2.07 µM
[7]
  GI50: 0.084 µM
  TGI: 0.821 µM
[8]
  GI50: 0.0557 µM
  TGI: 0.272 µM
[9]
  GI50: 0.166 µM
  TGI: 0.447 µM
[10]
  GI50: 0.506 µM
  TGI: 1.72 µM

## COc1ccc(C(=O)c2ccc(OC)cc2OC)cc1
[1]
  GI50: 5.87 µM
  TGI: > 100 µM
[2]
  GI50: 6.26 µM
  TGI: > 100 µM
[3]
  GI50: 3.75 µM
  TGI: > 100 µM
[4]
  GI50: 7.17 µM
  TGI: > 100 µM
[5]
  GI50: 3.66 µM
  TGI: > 100 µM
[6]
  GI50: 2.92 µM
  TGI: 24.4 µM
[7]
  GI50: 4.9 µM
  TGI: > 100 µM
[8]
  GI50: 3.79 µM
  TGI: > 100 µM
[9]
  GI50: 2.89 µM
  TGI: 12.2 µM
[10]
  GI50: 2.7 µM
  TGI: 39.6 µM
